The record followed here is publication PMC3581469, “Bombesin Analogue-Mediated Delivery Preferentially Enhances the Cytotoxicity of a Mitochondria-Disrupting Peptide in Tumor Cells” (PLoS ONE, 2013).

What is called IC50 is the concentration needed to halve the response being measured. Read a high IC50 as lower potency.

Where no end group is shown, it is not given here.

The subject of data set [1] is DU145 and PC-3 cells. Put plainly: Cytotoxicity assay (CCK-8 cell viability). Format: cell-based, human. The following applies: 1 h; for cytotoxicity (in words): increasing concentrations, CCK-8. The procedure: (§1) Cells were seeded at a density of 1×10^4 per well in a 96-well plate, were grown overnight and were co-incubated at 37°C for 1 h with increasing concentrations of the peptide in 100 µl RPMI 1640 supplemented with 2% FBS. Subsequently, the peptide solution was replaced by 100 µl fresh medium. To determine cell viability, 10 µl CCK-8 was added to the well, and the cultures were incubated for an additional 2–4 h. The absorbance was then measured at 450 nm (with a reference wavelength at 620 nm), and cell viability was calculated as the percentage of the value relative to the absorbance of the cells incubated without peptide. The IC50 values of the peptides were calculated from the respective cell viability curves. Simultaneously, the LIVE/DEAD BacLight bacterial viability kit was used to visualize the cytotoxicity of the peptides. Combined incubation with SYTO 9 (15 µM) and propidium iodide (PI, 2.5 µg/ml) stained the living cells fluorescent green and the dead cells fluorescent red due to their distinct cell membrane permeability.

For data set [2], the system named is DU145 cells. Put plainly: LDH release (Cytotox 96 non-radioactive cytotoxicity assay), necrosis. The data set is classed as cell-based, human. The conditions noted are these: 5 µM, 1 h. How it is done:
Necrosis was evaluated with the Cytotox 96 non-radioactive cytotoxicity assay kit by detecting the release of lactate dehydrogenase (LDH) from necrotic cells. Ten-thousand cells were plated in a 96-well plate and treated with the peptide in 100 µl of RMPI 1640 supplemented with 2% FBS for 10 min-2 h, followed by LDH detection with 50 µl of culture supernatant from the treated cells, according to the manufacturer’s instruction. The LDH level was presented as the percentage relative to that of cells treated with 0.9% Triton X-100.
In general terms: Release of lactate dehydrogenase indicates damage to the cell membrane.

For data set [3], the system named is liver and kidney. The following applies: mouse, in vivo, ip, 15 mg/kg. The procedure:
(§2) All of the protocols used for in vivo experiments were approved by the University Animal Care and Use Committee. Four to six-week-old male BALB/c nu/nu mice were purchased from the University Animal Production Center. Seven million DU145 cells suspended in 200 µl PBS were subcutaneously injected into the left flank region of mice. On day 7–9 post inoculation, the mice were randomized into three groups (n = 5) and intraperitoneally (i.p.) received 15 mg/kg B28Bn(6–14), B28 or an equivalent volume of PBS once daily for 7 consecutive days. Alternatively, the mice intratumorally received 5 mg/kg drug once daily for 5 consecutive days. The tumor volume was calculated as length×width^2×0.5. At the end of i.p. therapy, the animals were sacrificed and the major organs were excised, paraffin-embedded, sectioned, and stained with hematoxylin/eosin (H&E) for the examination of histopathologic architecture. To evaluate the cytotoxicity on tumor cells in vivo, a single dose of 50 µg of peptide in 50 µl of PBS was injected into the tumor graft (200–300 mm^3), according to the method described previously. At 24 h post-injection, the animals were sacrificed, and the tumor tissues were routinely stained with H&E.

Data set [4] has as its system DU145 cells. Put plainly: FITC-Annexin V/PI staining, FACS analysis of apoptosis and necrosis. The data set is classed as cell-based, human. How it is done: Phosphatidylserine exposed on the outer membrane reflects the early stages of apoptosis and can be detected by FITC-Annexin V and PI staining. The cells were detached and washed with medium. One-hundred and fifty thousand cells were suspended in 300 µl of RMPI 1640 supplemented with 10% FBS and treated with the peptide at the indicated concentration and time points. Then, the cells were subjected to dual staining with FITC-Annexin V and PI, according to the manual. The cells were observed under a fluorescence microscope and subjected to FACS analysis. Cells showing Annexin V−/PI-, Annexin V+/PI-, and Annexin V+/PI+ signals are considered to be living, early stage apoptotic, and either late stage apoptotic or necrotic, respectively. To assess DNA damage during apoptosis, the TUNEL assay was performed in accordance with the manufacturer’s instruction. Briefly, after treatment for 30 min-1 h with the peptide, cells were washed twice with PBS, fixed with 4% paraformaldehyde for 10–15 min at room temperature, permeabilized with 0.1% Triton X-100 for 2 min on ice, incubated in the reaction mixture and observed under a fluorescence microscope. FITC labeled nucleotides incorporated into the nuclei reflects DNA degradation. For investigating the activation of caspases, cells were preincubated with the Pan-caspase inhibitor, Z-VAD-FMK (100 µM), for 2 h before peptide treatment in the cytotoxicity assay. Immunofluorescence staining of caspase-3 was performed by using the Alexa Fluor 488-conjugated antibody against human cleaved caspase-3. The activation of caspase-3 was further verified by using a caspase-3 colorimetric assay kit (Genescript, Nanjing, China) with TNF-related apoptosis-inducing ligand (TRAIL) as a positive control. The activity of caspase-3 was presented as fold of peptide-treated cells vs untreated cells.
(In general: Flow cytometry measures light scatter and fluorescence of single cells or particles in a stream.)

Data set [5] has as its system DU145 tumor cells. The experiment in a line: Live/Dead staining with SYTO 9 and PI. The data set is classed as cell-based, human. The following applies: 5 µM, 45 min, SYTO 9/PI. How it is done: as §1
Data set [6] concerns tumor cells (PC-3, DU145, MCF-7, MDA-MB-435S). Format: cell-based, human. How it is done:
as §1

Data set [7] concerns normal cells (HSF, PrSC, SMC, MRC-5). Format: cell-based, human. The following applies: 1 h. How it is done: as §1
Data set [8] concerns DU145 tumor xenografts. The experiment in a line: DU145 tumor xenograft model in BALB/c nude mice. Format: in vivo, mouse. How it is done: as §2

Regarding `CSCC[C@H](NC(=O)[C@H](CC(C)C)NC(=O)[C@H](Cc1c[nH]cn1)NC(=O)CNC(=O)[C@@H](NC(=O)[C@H](C)NC(=O)[C@H](Cc1c[nH]c2ccccc12)NC(=O)[C@H](CCC(N)=O)NC(=O)[C@@H](N)CC(N)=O)C(C)C)C(N)=O` [Bn(6–14), reference compound], the “cytotoxicity (in words)” value in data set [1] is “no obvious cytotoxicity”.
Turning to “GGLRSLGRKILRAWKKYGNQWAVGHLM-NH2 [B28Bn(6–14)]”, in data set [2], the “necrotic cells detected by LDH assay (percentage of max release with 0.9% Triton X-100)” value is listed as “less than 10%”. Further, the “histological damage in liver and kidneys” value in data set [3] is recorded as “no obvious histological damage”. Besides, the “Annexin V+/PI+ cells (necrotic)” value was determined as 1.94% in data set [4] (2.5 µM, 10 min, 0 µM 0.24); 8.84% in data set [4] (5 µM, 1 min); 16.25% in data set [4] (5 µM, 5 min); 15.30% in data set [4] (5 µM, 10 min); 36.88% in data set [4] (5 µM, 15 min); 29.93% in data set [4] (10 µM, 10 min). Moreover, the “early apoptotic cells (Annexin V+/PI-)” value in data set [4] (2.5 µM, 10 min, 0 µM 3.80) is given as 18.05%; in data set [4] (5 µM, 1 min, 0 min 3.63), 36.99%; in data set [4] (5 µM, 5 min) it was 32.94%; in data set [4] (5 µM, 10 min) it was 39.19%; in data set [4] (5 µM, 15 min) it was 35.36%; in data set [4] (10 µM, 10 min), 43.18%. For the same compound, in data set [5], the “dead cells (red fluorescence)” value is “over 90%”. In addition, in data set [6] (10 µM, 1 h, CCK-8), the “loss of cell viability” value is given as “over 90%”. The figures for the IC50 in data set [6] (1 h) and in data set [7] were 1.7 to 3.5 µM and 10.8 to 16.8 µM, respectively. Further, the “IC50 in tumor cells, times lower than B28” value in data set [6] (IC50 ratio versus unconjugated B28) is listed as “approximately 10 times”. In addition, the mean tumor volume in data set [8] (intraperitoneal 15 mg/kg once daily for 7 days, day 30, n = 5, mean±SD, PBS 421±87) is reported as 179±42 mm^3; in data set [8] (intratumoral 5 mg/kg once daily for 5 days, day 45, n = 5, mean±SD, PBS 1344±286), 225±124 mm^3.
Take “GGLRSLGRKILRAWKKYGQRLGNQ-NH2 [B28Bn(2–7)]”: in data set [1] (10 µM peptide, CCK-8, RPMI 1640 with 2% FBS), the “cytotoxicity / loss of cell viability” value was “less than 40%”. The “cytotoxicity (in words)” value in data set [1] is “moderate cytotoxicity”.
